In patent publication US20050019746A1, “Apoptosis-related kinase/GPCRs” (EiRx Therapeutics Limited, priority 2003, published 2005):

Legend:
HCT15 cells [1] = test: 10-14 day Clonagenicity Assay (MTT), HCT15; assay type: cell-based, human; conditions: independent experiment n = 1, dilution point of maximum toxicity
Method in brief: (§1)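 siRNA knockdown at 2 μg/ml (4 h transfection) in serially halved seed densities; cells grown 10-14 d at 37 °C, 5% CO2, then counted by MTT conversion. Values: mean % survival vs missense oligo at the dilution giving maximum toxicity.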

A549 cells [2] = test: 10-14 day Clonagenicity Assay (MTT), A549; assay type: cell-based, human; conditions: independent experiment n = 3, dilution point of maximum toxicity
Description: (§2) The Clonagenicity Assay represents a Cell Viability Screen that allows assessment of a cytotoxic insult at a variety of seed densities of cancer cell lines over an extended period of logarithmic growth, such that the definitive effect of the test substance can be accurately quantified. In this instance, the ‘cytotoxic insult’ to be tested involves the transfection of siRNA Oligomers to knockdown the expression of novel target Kinases and GPCRs as outlined previously. Cell number is quantified 10-14 days post siRNA transfection by MTT conversion as described in detail in Example 6.
(§3) The Clonagenicity Assay is optimised for each cell line examined with respect to seed number. The seed number varies for each cell line and accounts for the differences in cell size, growth rate and sensitivity to transfection-induced toxicity for each cell line pursued. Cells lines given as models for this example include HCT15, MCF7, A549, SKOV3, DU145, U251, PC3, A498 and HeLa. The siRNA oligo to Survivin serves as a positive control for toxicity in this assay and the missense control oligomer acts as a negative control as described in detail in Examples 5 and 6. The c-Raf, BCL2 and PI3K siRNA oligomers serve as additional controls as previously mentioned. The Clonagenicity assay is performed as outlined below.
(§4) Cells are seeded into a 96-well plate as described below and allowed to adhere overnight at 37° C. in a humidified atmosphere containing 5% CO2 in air. Wells are seeded with an appropriate cell number (cell line dependent) in Column 1 of the 96 well plates and this cell suspension is diluted 1 in 2 across the 96 well plates from Column 1 through to 6 (represented on the x-axis in results). Cells are next transfected with siRNA Oligomers, at a concentration of 2 μg/ml, against the genes of interest. Transfections continue for 4 hrs after which the transfection solution is removed and cells are refed with fresh medium and allow to incubate overnight. An additional media change@24 hrs post transfection is made to minimise toxicity of the transfection reagent. Cells are subsequently incubated for a 10-14 Day period post transfection at a 37° C. incubation as described above. Medium is renewed weekly following which MTT quantification is performed as described in Example 5.
(§5) To be considered cytotoxic, the siRNA Oligo against the gene target must induce a decreased viability in a cell line across at least 2 seed densities in the clonagenicity assay, such that a significant difference between the target gene and MS is observed i.e. no crossing of the Standard Error bars is detected. The average percentage viability, relative to missense, is recorded for the dilution point at which Maximum Toxicity is induced is recorded in Table 13.
(§6) Table 13 Clonagenicity Assay—This table gives the average percentage survival of the indicated cell lines relative to the missense in a clonagenicity assay, over 3 independent experiments. As an internal reference, the known survival gene ‘Survivin’, BCL2, c-Raf and PI3KR1 was also targeted by siRNA. When no Cytotoxic response is detected ‘-’ is recorded.

MCF7 cells = test: Anchorage Independence/Soft Agar Assay, MCF7; assay type: cell-based, human; design: PERCENTAGE SURVIVAL RELATIVE TO MS, MCF7, n = 2: tested at 2 µg; conditions: soft agar
Protocol: (§7) The Anchorage Independence/Soft Agar Assay allows assessment of the influence of modulation of gene expression on clonal tumouroid formation by observing and quantifying tumouroid morphology and colony number over an extended period of logarithmic growth thereby ascertaining any cell death is induced.
(§8) Cells are seeded into a 6-well plate and allowed to adhere overnight at 37° C. in a humidified atmosphere containing 5% CO2 in air. Cells are next transfected with siRNA Oligomers, at a concentration of 2 μg, against the genes of interest. Transfections continued for 4 hrs after which the transfection solution is removed and cells are refed with fresh medium and allowed incubate overnight. Transfected cells are next harvested for seeding into soft agar assay as described below. Cells are seeded at 5×10^4 cells per well of a 6 well plate and incubated over a 12/14-Day period whilst proliferating in a 0.05% Agar/Medium cell suspension at 37° C. in a humidified atmosphere containing 5% CO2 in air. Colonies formed are subsequently stained with Crystal Violet, their morphology is assessed and colonies formed are enumerated at a 4× magnification.
(§9) The cytotoxic effect of each gene is determined by a reduction in colony number compared to our MS control, but any influence on the morphology of the colony is also noted.
(§10) Examples of genes with a cytotoxic effect on knockdown as detected by the soft agar assay are outlined in Table 14. Table 14 gives the percentage survival of the indicated cell lines post transfection with siRNA oligomers to target genes relative to that of the missense in an anchorage independent assay. As an internal reference, the known survival gene Survivin was also targeted by siRNA. This table illustrates the magnitude of cytotoxicity induced by the knockdown of each target gene compared to the MS control i.e. the number of colonies formed are stained with Crystal violet and enumerated visually as discussed.

A549 cells [3] = test: Anchorage Independence/Soft Agar Assay, A549; assay type: cell-based, human; design: PERCENTAGE SURVIVAL RELATIVE TO MS, A549, n = 2: tested at 2 µg; conditions: soft agar
Protocol: as §7, §8, §9, §10

DU145 cells = test: 10-14 day Clonagenicity Assay (MTT), DU145; assay type: cell-based, human; conditions: independent experiment n = 2, dilution point of maximum toxicity
Description: as §2, §3, §4, §5, §6

A498 cells = test: 10-14 day Clonagenicity Assay (MTT), A498; assay type: cell-based, human; conditions: independent experiment n = 3, dilution point of maximum toxicity
Method in brief: as §1

SKOV3 cells = test: 10-14 day Clonagenicity Assay (MTT), SKOV3; assay type: cell-based, human; conditions: independent experiment n = 1, dilution point of maximum toxicity
Method in brief: as §1

HCT15 cells [4] = test: Anchorage Independence/Soft Agar Assay, HCT15; assay type: cell-based, human; design: PERCENTAGE SURVIVAL RELATIVE TO MS, HCT15, n = 2: tested at 2 µg; PERCENTAGE SURVIVAL RELATIVE TO MS, HCT15, n = 1: tested at 2 µg siRNA; conditions: soft agar
Protocol: as §7, §8, §9, §10

cancer cell lines = test: Anchorage Independence/Soft Agar Assay, summary over the cell lines; assay type: cell-based, human; conditions: 14-day anchorage independent assay, over the cell lines examined
Protocol: as §7, §8, §9
As an internal reference, the known survival gene ‘Survivin’ was also targeted by siRNA.

[5] = test system: PDK1 regulatory sites in S6K1 and Akt; conditions: Ballif et al; cited from earlier work
[6] = test system: human primary neutrophils; test: Neutrophil apoptosis by sub G1 analysis (DNA fragmentation); assay type: cell-based; conditions: inhibitor 20 μM with GM-CSF 50 units/ml, 18 h, relative to GM-CSF alone
Protocol: Neutrophils are isolated from the blood as described in WO 02/04657 and resuspended at a concentration of 2×10^6/ml. Five hundred microlitres are pipetted into wells of a 24 well plate and incubated in the presence or absence of survival factors.
After this incubation, the neutrophils are carefully resuspended by gentle agitation and the total contents of the well are placed into an eppendorf and centrifuged@2800 rpm for 2 min@RT in a minifuge. The cell pellet is carefully resuspended in 300 μl of ice cold hypotonic fluorochrome solution (50 μg/ml Propidium Iodide, 0.1% Sodium Citrate and 0.1% Triton X-100) and placed in a fridge for 24 h@4° C.
Prepared samples are analysed with a FacsCalibre flow cytometer (Becton Dickinson) using double discrimination to ensure single cell suspension with Log Forward and Side Scatter Parameter acquisition.
(§11) Neutrophils are seeded at 2×10^6/ml in a 24 well plate in full culture medium (1 ml/well). A PI3K inhibitor (Ly294002) is added to the neutrophils to a final concentration of 20 μM prior to the addition of GM-CSF (50 units/ml). Control wells received either no GM-CSF or F GM-CSF (50 units/ml) in the absence of inhibitor. Neutrophils are cultured for 18 h at 37° C. prior to harvest and prepared for sub G1 analysis, as previously described.
as §11, with “An AKT” for “A PI3K”, “([1L-6-Hydroxymethyl-chiro-inositol 2-O-methyl-3-O-octadecylcarbonate] (Calbiochem))” for “(Ly294002)”, “μM and incubated for 2 h” for “μM”, “receive” for “received”, “or” for “or F”

glioblastoma cell = conditions: Narla et al; cited from earlier work
[7] = test system: JAK3-positive leukemia cell lines DAUDI, RAMOS, LC1;19, NALM-6, MOLT-3, HL-60; conditions: concentration-dependent, not JAK3-negative lines (Sudbeck et al); cited from earlier work

Compound: siRNA c-Raf: control siRNA, sense UAGUUCAGCAGUUUGGCUAtt, antisense UAGCCAAACUGCUGAACUAtt (sense UAGUUCAGCAGUUUGGCUATT; antisense UAGCCAAACUGCUGAACUATT; chemistry not given here) [reference compound]
- percentage survival relative to the missense, n = 1 (HCT15 cells [1]): 83.5%
- percentage survival relative to the missense, n = 3 (A549 cells [2]): 59.1%
- PERCENTAGE SURVIVAL RELATIVE TO MS, MCF7, n = 1 (MCF7 cells; experiment n = 1): 89.7%
- PERCENTAGE SURVIVAL RELATIVE TO MS, MCF7, n = 2 (MCF7 cells; experiment n = 2): 98.2%
- PERCENTAGE SURVIVAL RELATIVE TO MS, A549, n = 1 (A549 cells [3]; experiment n = 1): 57%
- PERCENTAGE SURVIVAL RELATIVE TO MS, A549, n = 2 (A549 cells [3]; experiment n = 2): 24.2%
- percentage survival relative to the missense, n = 2 (DU145 cells): 54.9%
- percentage survival relative to the missense, n = 3 (A498 cells): 14.8%
- percentage survival relative to the missense, n = 1 (SKOV3 cells): 42.5%
- PERCENTAGE SURVIVAL RELATIVE TO MS, HCT15, n = 1 (HCT15 cells [4]; experiment n = 1): 70%
- PERCENTAGE SURVIVAL RELATIVE TO MS, HCT15, n = 2 (HCT15 cells [4]; experiment n = 2): 65.1%
- cell death / apoptosis in the soft agar assay (cancer cell lines): only induced cell death in the A549 and HCT15 cell lines

Compound: Cc1ccc(S(=O)(=O)N[C@@H](Cc2ccccc2)C(=O)CCl)cc1 [TPCK, n-alpha-tosyl-1-phenylalanyl chloromethyl ketone]
- phosphorylation of PDK1 regulatory sites [5]: prevented phosphorylation of the PDK1 regulatory sites in S6K1 and Akt

Compound: CCCCCCCCCCCCCCCCCCOC(=O)OC1C(O)C(O)C(CO)C(O)C1OC (centres unmarked) [1L-6-Hydroxymethyl-chiro-inositol 2-O-methyl-3-O-octadecylcarbonate]
- apoptosis / GM-CSF mediated survival by sub G1 analysis [6]: survival is abrogated
- apoptosis / GM-CSF mediated survival by sub G1 analysis ([6]; listed as IL-6-Hydroxymethyl-chiro-inositol 2-(R)-2-O-methyl-3-O-octadecylcarbonate): increases the amount of apoptosis

Compound: COc1cc2ncnc(Nc3ccc(O)cc3)c2cc1OC [WHI-P131]
- glioblastoma cell adhesion and migration (glioblastoma cell): potent inhibitors of glioblastoma cell adhesion and migration
- clonogenic growth [7]: inhibited the clonogenic growth
